In US12539292B2, “BRM targeting compounds and associated methods of use” (Arvinas Operations, Inc., priority 2018, dated 2026):

Biological target: T1, BRM (Homo sapiens, UniProt P51531)
T1 construct: In-Cell Western Screen of BRM Degradation in SW1573 Cells; endogenous in cells; host or cells: SW1573
Experiment: In-cell Western screen of BRM degradation in SW1573 cells (Dmax and DC50)
Format: cell-based
Conditions: BRM degradation, SW1573 cells; for DC50: read-out: DC50; for Dmax: tested at the top concentration of between 0.3 and 10 μM, read-out: Dmax (%) (% degraded)
In short: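 After adhering overnight, cells received compound for 18-20 hours. They were then washed in cold DPBS, fixed with 4% PFA for 20 min and permeabilized for 30 min. Blocking and fluorescent secondary staining followed before imaging.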

T1 sequence (P51531 whole entry): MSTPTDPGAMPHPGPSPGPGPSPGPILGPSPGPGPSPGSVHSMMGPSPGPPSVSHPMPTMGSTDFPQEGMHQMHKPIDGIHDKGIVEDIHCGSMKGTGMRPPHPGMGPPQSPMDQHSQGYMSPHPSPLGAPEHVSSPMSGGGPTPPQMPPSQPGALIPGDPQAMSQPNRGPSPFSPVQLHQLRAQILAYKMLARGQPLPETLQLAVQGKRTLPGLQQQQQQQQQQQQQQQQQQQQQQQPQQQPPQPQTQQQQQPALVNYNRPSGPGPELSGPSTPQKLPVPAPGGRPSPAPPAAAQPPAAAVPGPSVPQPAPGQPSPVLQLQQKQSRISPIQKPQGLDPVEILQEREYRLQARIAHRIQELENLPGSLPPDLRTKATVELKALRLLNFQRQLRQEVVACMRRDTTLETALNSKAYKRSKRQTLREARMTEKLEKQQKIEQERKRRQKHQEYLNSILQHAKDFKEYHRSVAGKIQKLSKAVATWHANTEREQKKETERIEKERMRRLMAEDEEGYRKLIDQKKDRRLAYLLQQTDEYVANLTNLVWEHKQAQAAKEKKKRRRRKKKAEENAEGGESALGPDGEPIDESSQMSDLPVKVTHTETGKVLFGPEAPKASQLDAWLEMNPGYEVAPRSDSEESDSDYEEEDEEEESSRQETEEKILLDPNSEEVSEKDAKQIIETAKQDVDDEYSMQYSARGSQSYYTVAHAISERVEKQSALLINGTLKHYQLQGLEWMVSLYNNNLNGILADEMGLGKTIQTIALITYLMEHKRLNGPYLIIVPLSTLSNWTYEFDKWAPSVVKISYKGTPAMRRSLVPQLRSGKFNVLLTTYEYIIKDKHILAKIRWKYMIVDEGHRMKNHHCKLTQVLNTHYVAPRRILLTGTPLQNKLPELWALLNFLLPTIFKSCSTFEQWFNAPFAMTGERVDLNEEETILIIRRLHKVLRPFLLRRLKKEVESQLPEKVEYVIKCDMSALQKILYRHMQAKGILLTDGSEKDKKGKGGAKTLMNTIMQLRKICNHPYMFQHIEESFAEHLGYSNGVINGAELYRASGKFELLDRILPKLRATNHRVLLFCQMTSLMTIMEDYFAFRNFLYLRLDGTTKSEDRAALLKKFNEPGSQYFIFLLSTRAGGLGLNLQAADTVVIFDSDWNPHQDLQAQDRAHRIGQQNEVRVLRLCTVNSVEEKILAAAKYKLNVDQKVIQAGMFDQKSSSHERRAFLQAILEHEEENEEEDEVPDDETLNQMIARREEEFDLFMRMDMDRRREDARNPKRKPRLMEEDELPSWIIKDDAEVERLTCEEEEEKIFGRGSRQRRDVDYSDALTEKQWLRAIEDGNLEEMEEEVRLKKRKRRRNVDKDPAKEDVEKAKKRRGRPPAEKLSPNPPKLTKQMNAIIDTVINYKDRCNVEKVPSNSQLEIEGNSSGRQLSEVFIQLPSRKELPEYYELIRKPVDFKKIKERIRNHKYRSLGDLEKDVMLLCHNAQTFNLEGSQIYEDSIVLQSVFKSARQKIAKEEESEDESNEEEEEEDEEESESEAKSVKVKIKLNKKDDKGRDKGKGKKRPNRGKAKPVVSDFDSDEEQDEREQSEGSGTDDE

SMILES | DC50 [nM] | Dmax [%]
Cc1ncoc1-c1ccc([C@H](C)NC(=O)[C@@H]2C[C@@H](O)CN2C(=O)[C@H](c2cc(OCCN3CCN(CCOc4cc(N5C6CCC5CN(c5cc(-c7ccccc7O)nnc5N)C6)ccn4)CC3)no2)C(C)C)cn1 [compound 161, (2S,4R)-1-((2S)-2-(3-(2-(4-(2-((4-(3-(3-amino-6-(2-hydroxyphenyl)pyridazin-4-yl)-3,8-diazabicyclo[3.2.1]octan-8-yl)pyridin-2-yl)oxy)ethyl)piperazin-1-yl)ethoxy)isoxazol-5-yl)-3-methylbutanoyl)-4-hydroxy-N-((S)-1-(6-(4-methyloxazol-5-yl)pyridin-3-yl)ethyl)pyrrolidine-2-carboxamide] | > 30 | < 50
Cc1ncsc1-c1ccc([C@H](C)NC(=O)[C@@H]2C[C@@H](O)CN2C(=O)[C@H](c2cc(OCCOc3ccc(C(C)n4cc(-c5cc(-c6ccccc6O)nnc5N)cn4)cn3)no2)C(C)C)cc1 (stereo partly drawn) [compound 163, (2S,4R)-1-((2S)-2-(3-(2-((5-(1-(4-(3-amino-6-(2-hydroxyphenyl)pyridazin-4-yl)-1H-pyrazol-1-yl)ethyl)pyridin-2-yl)oxy)ethoxy)isoxazol-5-yl)-3-methylbutanoyl)-4-hydroxy-N-((S)-1-(4-(4-methylthiazol-5-yl)phenyl)ethyl)pyrrolidine-2-carboxamide] | < 2.5 | > 75
Cc1ncsc1-c1ccc([C@H](C)NC(=O)[C@@H]2C[C@@H](O)CN2C(=O)[C@H](c2cc(OCCN3CCC4(CC3)CC(OCCN3CCOC5(CCN(c6cc(-c7ccccc7O)nnc6N)CC5)C3)C4)no2)C(C)C)cc1 [compound 164, (2S,4R)-1-((S)-2-(3-(2-(2-(2-(9-(3-amino-6-(2-hydroxyphenyl)pyridazin-4-yl)-1-oxa-4,9-diazaspiro[5.5]undecan-4-yl)ethoxy)-7-azaspiro[3.5]nonan-7-yl)ethoxy)isoxazol-5-yl)-3-methylbutanoyl)-4-hydroxy-N-((S)-1-(4-(4-methylthiazol-5-yl)phenyl)ethyl)pyrrolidine-2-carboxamide] | 10 to 30 | 50 to 75
Cc1ncsc1-c1ccc(CNC(=O)[C@@H]2C[C@@H](O)CN2C(=O)[C@H](c2cc(OCCN3CCN(CCOCCn4cc(-c5cc(-c6ccccc6O)nnc5N)cn4)CC3)no2)C(C)C)cc1 [compound 165, (2S,4R)-1-((S)-2-(3-(2-(4-(2-(2-(4-(3-amino-6-(2-hydroxyphenyl)pyridazin-4-yl)-1H-pyrazol-1-yl)ethoxy)ethyl)piperazin-1-yl)ethoxy)isoxazol-5-yl)-3-methylbutanoyl)-4-hydroxy-N-(4-(4-methylthiazol-5-yl)benzyl)pyrrolidine-2-carboxamide] | > 30 | < 50
Cc1ncsc1-c1ccc([C@H](C)NC(=O)[C@@H]2C[C@@H](O)CN2C(=O)[C@H](c2cc(OCCN3CCN(Cc4ccc(C(C)n5cc(-c6cc(-c7ccccc7O)nnc6N)cn5)cc4)CC3)no2)C(C)C)cc1 (stereo partly drawn) [compound 166, (2S,4R)-1-((2S)-2-(3-(2-(4-(4-(1-(4-(3-amino-6-(2-hydroxyphenyl)pyridazin-4-yl)-1H-pyrazol-1-yl)ethyl)benzyl)piperazin-1-yl)ethoxy)isoxazol-5-yl)-3-methylbutanoyl)-4-hydroxy-N-((S)-1-(4-(4-methylthiazol-5-yl)phenyl)ethyl)pyrrolidine-2-carboxamide] | 2.5 to 10 | > 75
CC(C)C(C(=O)N1C[C@H](O)C[C@H]1C(=O)N[C@@H](C)c1ccc(-c2scnc2CN(C)C)cc1)c1cc(OCCN2CCN(CCOc3cc(N4C5CCC4CN(c4cc(-c6ccccc6O)nnc4N)C5)ccn3)CC2)no1 (stereo partly drawn) [compound 167, (2S,4R)-1-(2-(3-(2-(4-(2-((4-(3-(3-amino-6-(2-hydroxyphenyl)pyridazin-4-yl)-3,8-diazabicyclo[3.2.1]octan-8-yl)pyridin-2-yl)oxy)ethyl)piperazin-1-yl)ethoxy)isoxazol-5-yl)-3-methylbutanoyl)-N-((S)-1-(4-(4-((dimethylamino)methyl)thiazol-5-yl)phenyl)ethyl)-4-hydroxypyrrolidine-2-carboxamide] | 10 to 30 | > 75
CC(C)C(C(=O)N1C[C@H](O)C[C@H]1C(=O)N[C@@H](C)c1ccc(-c2scnc2CO)cc1)c1cc(OCCN2CCN(CCOc3cc(N4C5CCC4CN(c4cc(-c6ccccc6O)nnc4N)C5)ccn3)CC2)no1 (stereo partly drawn) [compound 168, (2S,4R)-1-(2-(3-(2-(4-(2-((4-(3-(3-amino-6-(2-hydroxyphenyl)pyridazin-4-yl)-3,8-diazabicyclo[3.2.1]octan-8-yl)pyridin-2-yl)oxy)ethyl)piperazin-1-yl)ethoxy)isoxazol-5-yl)-3-methylbutanoyl)-4-hydroxy-N-((S)-1-(4-(4-(hydroxymethyl)thiazol-5-yl)phenyl)ethyl)pyrrolidine-2-carboxamide] | < 2.5 | > 75
COCc1ncsc1-c1ccc([C@H](C)NC(=O)[C@@H]2C[C@@H](O)CN2C(=O)C(c2cc(OCCN3CCN(CCOc4cc(N5C6CCC5CN(c5cc(-c7ccccc7O)nnc5N)C6)ccn4)CC3)no2)C(C)C)cc1 (stereo partly drawn) [compound 169, (2S,4R)-1-(2-(3-(2-(4-(2-((4-(3-(3-amino-6-(2-hydroxyphenyl)pyridazin-4-yl)-3,8-diazabicyclo[3.2.1]octan-8-yl)pyridin-2-yl)oxy)ethyl)piperazin-1-yl)ethoxy)isoxazol-5-yl)-3-methylbutanoyl)-4-hydroxy-N-((S)-1-(4-(4-(methoxymethyl)thiazol-5-yl)phenyl)ethyl)pyrrolidine-2-carboxamide] | < 2.5 | > 75
Cc1ncsc1-c1ccc([C@H](C)NC(=O)[C@@H]2C[C@@H](O)CN2C(=O)[C@H](c2cc(CCCN3CCN(CCOc4cc(N5C6CCC5CN(c5cc(-c7ccccc7O)nnc5N)C6)ccn4)CC3)no2)C(C)C)cc1 [compound 170, (2S,4R)-1-((2S)-2-(3-(3-(4-(2-((4-(3-(3-amino-6-(2-hydroxyphenyl)pyridazin-4-yl)-3,8-diazabicyclo[3.2.1]octan-8-yl)pyridin-2-yl)oxy)ethyl)piperazin-1-yl)propyl)isoxazol-5-yl)-3-methylbutanoyl)-4-hydroxy-N-((S)-1-(4-(4-methylthiazol-5-yl)phenyl)ethyl)pyrrolidine-2-carboxamide] | 2.5 to 10 | > 75
Cc1ncsc1-c1ccc([C@@H](NC(=O)[C@@H]2C[C@@H](O)CN2C(=O)[C@H](c2cc(OCCN3CCN(CCOc4cc(N5C6CCC5CN(c5cc(-c7ccccc7O)nnc5N)C6)ccn4)CC3)no2)C(C)C)C(=O)N(C)C)cc1 [compound 171, (2S,4R)-1-((2S)-2-(3-(2-(4-(2-((4-(3-(3-amino-6-(2-hydroxyphenyl)pyridazin-4-yl)-3,8-diazabicyclo[3.2.1]octan-8-yl)pyridin-2-yl)oxy)ethyl)piperazin-1-yl)ethoxy)isoxazol-5-yl)-3-methylbutanoyl)-N-((R)-2-(dimethylamino)-1-(4-(4-methylthiazol-5-yl)phenyl)-2-oxoethyl)-4-hydroxypyrrolidine-2-carboxamide] | > 30 | 50 to 75
CC(C)C(C(=O)N1C[C@H](O)C[C@H]1C(=O)N[C@@H](C)c1ccc(-c2scnc2C#CCN(C)C)cc1)c1cc(OCCN2CCN(CCOc3cc(N4C5CCC4CN(c4cc(-c6ccccc6O)nnc4N)C5)ccn3)CC2)no1 (stereo partly drawn) [compound 172, (2S,4R)-1-(2-(3-(2-(4-(2-((4-(3-(3-amino-6-(2-hydroxyphenyl)pyridazin-4-yl)-3,8-diazabicyclo[3.2.1]octan-8-yl)pyridin-2-yl)oxy)ethyl)piperazin-1-yl)ethoxy)isoxazol-5-yl)-3-methylbutanoyl)-N-((S)-1-(4-(4-(3-(dimethylamino)prop-1-yn-1-yl)thiazol-5-yl)phenyl)ethyl)-4-hydroxypyrrolidine-2-carboxamide] | < 2.5 | > 75
Cc1ncsc1-c1ccc([C@@H](NC(=O)[C@@H]2C[C@@H](O)CN2C(=O)[C@H](c2cc(OCCN3CCN(CCOc4cc(N5C6CCC5CN(c5cc(-c7ccccc7O)nnc5N)C6)ccn4)CC3)no2)C(C)C)C(F)F)cc1 [compound 173, (2S,4R)-1-((2S)-2-(3-(2-(4-(2-((4-(3-(3-amino-6-(2-hydroxyphenyl)pyridazin-4-yl)-3,8-diazabicyclo[3.2.1]octan-8-yl)pyridin-2-yl)oxy)ethyl)piperazin-1-yl)ethoxy)isoxazol-5-yl)-3-methylbutanoyl)-N-((R)-2,2-difluoro-1-(4-(4-methylthiazol-5-yl)phenyl)ethyl)-4-hydroxypyrrolidine-2-carboxamide] | > 30 | > 75
CC(=O)NCc1ncsc1-c1ccc([C@H](C)NC(=O)[C@@H]2C[C@@H](O)CN2C(=O)C(c2cc(OCCN3CCN(CCOc4cc(N5C6CCC5CN(c5cc(-c7ccccc7O)nnc5N)C6)ccn4)CC3)no2)C(C)C)cc1 (stereo partly drawn) [compound 174, (2S,4R)-N-((S)-1-(4-(4-(acetamidomethyl)thiazol-5-yl)phenyl)ethyl)-1-(2-(3-(2-(4-(2-((4-(3-(3-amino-6-(2-hydroxyphenyl)pyridazin-4-yl)-3,8-diazabicyclo[3.2.1]octan-8-yl)pyridin-2-yl)oxy)ethyl)piperazin-1-yl)ethoxy)isoxazol-5-yl)-3-methylbutanoyl)-4-hydroxypyrrolidine-2-carboxamide] | 10 to 30 | > 75
CC(=O)NCC#Cc1ncsc1-c1ccc([C@H](C)NC(=O)[C@@H]2C[C@@H](O)CN2C(=O)C(c2cc(OCCN3CCN(CCOc4cc(N5C6CCC5CN(c5cc(-c7ccccc7O)nnc5N)C6)ccn4)CC3)no2)C(C)C)cc1 (stereo partly drawn) [compound 175, (2S,4R)-N-((S)-1-(4-(4-(3-acetamidoprop-1-yn-1-yl)thiazol-5-yl)phenyl)ethyl)-1-(2-(3-(2-(4-(2-((4-(3-(3-amino-6-(2-hydroxyphenyl)pyridazin-4-yl)-3,8-diazabicyclo[3.2.1]octan-8-yl)pyridin-2-yl)oxy)ethyl)piperazin-1-yl)ethoxy)isoxazol-5-yl)-3-methylbutanoyl)-4-hydroxypyrrolidine-2-carboxamide] | 2.5 to 10 | > 75
